Assay results: patent EP1142587A1 (priority 1998, dated 2000)

Tests used:
Mice = details: mouse, in vivo, ip
dopamine D2 receptor = molecular target: T1, dopamine D2 receptor (Rattus norvegicus, UniProt P61169); test: biochemical; type: binding
T1 construct: A membrane fraction obtained from rat corpus striatum was prepared as a membrane fraction of a dopamine D2 receptor; from tissue; host or cells: rat corpus striatum membrane fraction

Sprague-Dawley rats = details: rat, in vivo
mouse = test: Anti-dopamine action against apomorphine-induced climbing behavior; type: in vivo; details: for Wall climbing behavior: apomorphine (2mg/kg, s.c.) + test substance; for ED50: sc, apomorphine 2mg/kg s.c. 10 minutes after test drug, climbing measured from 20 minutes after apomorphine for 1 minute, read-out: ED50 value regarding anti-dopamine action
Excerpt: The term "a compound having dopamine D2 receptor antagonist activity" is used herein to mean a compound showing a binding affinity in a D2 receptor membrane binding test, and also showing inhibiting effect to apomorphine-induced climbing behavior.
The administration of dopamine receptor agonists, apomorphine induces a continual climbing behavior in mice. A test for competitive action against this effect is generally used as a method for detecting the dopamine receptor antagonist. A mouse was put into a cylindrical wire gauze (10 cm diameter × 14cm height) and allowed to habituate itself with the circumstances for about 1 hour. Apomorphine (2mg/kg, s.c.) was administered to the mouse at 10 minutes after the administration of the test drug, and from 20 minutes after the administration of apomorphine, its climbing behavior (which means the period during which all four legs of the mouse have left from the ground) was measured for 1 minute. Furthermore, a sigmoid curve was determined from dose response by a method of least squares, and ED50 value was calculated.

ddY male mice = test: animal or person; type: in vivo; details: Mus musculus, ip, 0.5 h, read-out: ED50 value regarding analgetic effect

T1 sequence (P61169 whole entry): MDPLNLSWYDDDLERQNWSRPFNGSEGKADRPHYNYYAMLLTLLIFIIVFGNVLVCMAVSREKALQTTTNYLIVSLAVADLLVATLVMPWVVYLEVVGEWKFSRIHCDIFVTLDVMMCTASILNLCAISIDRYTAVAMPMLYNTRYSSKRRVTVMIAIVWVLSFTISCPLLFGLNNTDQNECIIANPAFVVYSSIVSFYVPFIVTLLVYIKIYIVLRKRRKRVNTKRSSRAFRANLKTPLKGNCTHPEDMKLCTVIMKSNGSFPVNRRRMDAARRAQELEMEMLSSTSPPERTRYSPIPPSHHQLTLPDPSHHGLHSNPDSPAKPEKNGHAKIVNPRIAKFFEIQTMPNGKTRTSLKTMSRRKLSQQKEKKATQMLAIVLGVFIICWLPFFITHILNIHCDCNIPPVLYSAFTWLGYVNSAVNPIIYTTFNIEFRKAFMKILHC

Compound | effect on locomotor activity (Mice) | Ki (dopamine D2 receptor) [µM] | position palatability (psychological dependence / aversive effect) (Sprague-Dawley rats) | Wall climbing behavior (mouse) | ED50 (mouse) [mg/kg] | ED50 (ddY male mice) [mg/kg]
Cc1ccc(CN2CCC3(CC2)C(=O)NCN3c2ccccc2)cn1 [Example 16, 1'-(6-methyl-3-pyridyl)methyl-spiroimidazolidine-4,4'-piperidine-3-phenyl-5-on] | no effect on locomotor activity | 0.017 | neither psychological dependence nor aversive effects | inhibitory effect | 11.9 | –
O=C1OC2(CCN(Cc3ccc(Cl)nc3)CC2)c2cc3ccccc3cc21 [Example 3, 1'-(6-chloro-3-pyridyl)methyl(benzo[f]1,3-dihydroisobenzofuran-1-spiro-4'-piperidine)-3-on] | – | 1.59 | – | – | – | –
O=C1OC2(CCN(Cc3ccccc3)CC2)c2c1ccc1ccccc21 [Example 11, 1'-benzyl(benzo[g]1,3-dihydroisobenzofuran-1-spiro-4'-piperidine)-3-on] | – | 0.177 | – | – | – | –
O=C1NCN(c2ccccc2)C12CCN(Cc1cccnc1)CC2 [Example 17, 1'-(3-pyridyl)methyl-spiroimidazolidine-4,4'-piperidine-3-phenyl-5-on] | no effect on locomotor activity | 0.457 | – | – | – | –
N=C1OC2(CCN(Cc3ccc(Cl)nc3)CC2)c2c1ccc1ccccc21 [Example 1, 1'-(6-chloro-3-pyridyl)methyl(benzo[g]1,3-dihydroisobenzofuran-1-spiro-4'-piperidine)-3-imine] | – | 0.23 | – | – | – | –
O=C1NCN(c2ccccc2)C12CCN(Cc1ccc(Br)cc1)CC2 [Example 18, 1'-(4-bromobenzyl)-spiroimidazolidine-4,4'-piperidine-3-phenyl-5-on] | no effect on locomotor activity | 0.0057 | – | inhibitory effect | 1.05 | –
O=C1OC2(CCN(Cc3ccc(Cl)nc3)CC2)c2c1ccc1ccccc21 [Example 2, 1'-(6-chloro-3-pyridyl)methyl(benzo[g]1,3-dihydroisobenzofuran-1-spiro-4'-piperidine)-3-on] | – | 0.532 | – | – | – | –
COc1ccc(CN2CCC3(CC2)C(=O)NCN3c2ccccc2)cc1 [Example 14, 1'-(4-methoxybenzyl)-spiroimidazolidine-4,4'-piperidine-3-phenyl-5-on] | no effect on locomotor activity | 0.02 | neither psychological dependence nor aversive effects | inhibitory effect | 2.22 | –
O=C1NCN(c2ccccc2)C12CCN(Cc1ccc(Cl)nc1)CC2 [Example 15, 1'-(6-chloro-3-pyridyl)methyl-spiroimidazolidine-4,4'-piperidine-3-phenyl-5-on] | no effect on locomotor activity | 0.0036 | – | inhibitory effect | 1.22 | –
CN1CC[C@]23c4c5ccc(O)c4O[C@H]2[C@@H](O)C=C[C@H]3[C@H]1C5 [Morphine, reference compound] | strong locomotor activity promoting effect | – | strong rewarding effect | – | – | 13.7
Cc1ccc(CN2CCC3(CC2)C(=O)NCN3c2ccccc2)cc1 [Example 23, 1'-(4-methylbenzyl)-spiroimidazolidine-4,4'-piperidine-3-phenyl-5-on] | no effect on locomotor activity | 0.052 | – | inhibitory effect | 9.5 | –
O=C1OC2(CCN(Cc3ccccc3)CC2)c2ccccc21 [Reference example 15, 1'-benzyl-spiro[benzodihydrofuran-1(3H),4'-piperidine)-3-on, reference compound] | – | > 1 | – | – | – | –
